Measured values taken from US20070280957A1, “Change of the Load State of Mhc Molecules” (priority 2004, published 2007).
“Also recorded” adds a separate entry of the source.

Key:
[1] = target: T1, soluble HLA-DR1 (DRA1*0101, DRB1*0101) (Homo sapiens, UniProt P01903+P01911, A100R/D57E/F55L/F60I/F76Y/I96L/L162R/M171V/P40L/Q125E/R42F/V115G/Y59C); assay: Loading of empty soluble HLA-DR1 with biotinylated HA306-318 peptide, sandwich ELISA; format: biochemical
T1 construct: shortened α- and […]-chains without the cytoplasmatic and transmembrane portion of the MHC molecule; made in house; host or cells: S2 insect cells
Description: In order to monitor catalysis of the loading of HLA-DR molecules by compounds of formulae I, IA, II, III and IV1 to IV3, empty, soluble DR molecules were incubated with biotinylated, high-affinity peptide, and these were then detected in a sandwich ELISA for the MHC complexes.
All the batches were then adjusted to a final volume of 10 μl with 2% BSA-PO4^3− buffer (in the case of HLA-DR1 only with PO4^3− buffer). The reaction was started by incubation at 37° C. in a thermocycler. After 40 minutes, the incubation was terminated and the loading reaction was stopped by storage on ice and addition of 50 μl of ice-cold 1% BSA-PBS.
The detection of bound peptide was carried out by means of a sandwich ELISA. […] Between these steps, the plate was washed twice with PBS-0.05% Tween with the aid of a PW plate-washing device (Tecan Industries) and, before filling with fresh solution, all remaining liquid residues were removed by tapping on Scott®Natura paper towels (Hakle-Kimberly Deutschland GmbH). After blocking of non-specific binding sites, the plate was washed three times and filled with 50 μl/well of 1% BSA-PBS. 2×25 μl per reaction batch were transferred to the plate as double values and were carefully mixed thereon (total volume per well: 75 μl). From each filled series, a further 25 μl/well were then again titrated on the plate in a series of two-stage dilutions (final volume per well: 50 μl). The plates so filled were then stored for 2 hours at 4° C. under stationary conditions. Each plate was then washed six times as described above and filled with 80 μl/well of Eu^3+-streptavidin staining solution (europium-streptavidin stock solution diluted 1:10,000 with 1% BSA-PBS) and incubated for 30 minutes at room temperature (RT). After washing for a further eight times, 100 μl/well of fluorescence-activated solution (enhancer) were then added and the signal was measured by means of a Victor^2-multilabelcounter (Wallac Oy) at an excitation wavelength of 340 nm and an emission wavelength of 615 nm in time-resolving mode.
The following experiment was therefore carried out. One catalyst in a fixed concentration of 0.05 mM was introduced into each of a number of batches for loading HLA-DR1 with HA-biot. The same concentration of a second catalyst was then added to each batch. As controls, 1×1% DMSO was added and, as negative control, a reaction mixture was prepared with 2×1% DMSO. The reaction mixtures were then incubated for 40 minutes as already described and the load was measured in a sandwich ELISA.
The resulting load was then determined in an ELISA using biotinylated peptide (see FIG. 1).
The amount of peptide/MHC complexes formed within this time was then determined by means of an ELISA assay (capture antibody: anti-HLA-DR; detection: fluorescent-labelled streptavidin). The activities of the individual compounds were grouped on the basis of the dose/activity curves obtained thereby.

HLA-DR1 (DRB1*0101) = target: T2, HLA-DR1 (DRB1*0101) (Homo sapiens, UniProt P01903+P01911, A100R/D57E/F55L/F60I/F76Y/I96L/L162R/M171V/P40L/Q125E/R42F/V115G/Y59C); assay: HLA-DR1-restricted T-cell response after catalysed loading of 721.221 cells (EvHA/X5, hCII19.3 T-cells); format: cell-based; conditions: HA306-318 (EvHA/X5) or CO260-273 (hCII19.3) loaded onto 721.221 cells
T2 construct: HLA-DR-expressing 721.221 cells; endogenous in cells; host or cells: 721.221 cells
Excerpt: In the present comparison test, the enhancement of the T-cell response by catalysis of the loading of HLA-expressing cells was investigated. […] Either HA306-318 (see also FIG. 3, left-hand panel) or CO260-273 (see also FIG. 3, right-hand panel) was used as peptide antigen. After the loading, the cells were washed and used to stimulate EvHA/X5 and hCII19.3 cells, respectively.
In order to investigate the catalysis of a HLA-DR1 (DRB1*0101)-restricted T-cell response by various catalytically active adamantyl compounds, dose-activity curves of the catalysis of a HLA-DR1 (DRB1*0101)-restricted T-cell response were prepared. The experiment was carried out analogously to Comparison Experiment 3.3, the peptide antigen HA306-318 being loaded onto 721.221 cells in order thereby to stimulate EvHA/X5 T-cells. […] Because the position of the dose-activity curves is evidently also determined by the side chain, a modulating activity can be attributed thereto.

HLADR2 (DRB1*1501) = target: T3, HLADR2 (DRB1*1501) (Homo sapiens, UniProt P01903+P01911); assay: HLA-DR2-restricted T-cell response (08073 T-cells, MGAR cells) after catalysed loading; format: cell-based; conditions: MBP86-100, 08073 T-cells
T3 construct: endogenous in cells; host or cells: MGAR cells
Description: (§1) For evaluation, dose-activity curves of a HLA-DR4-restricted (FIG. 4, left-hand panel) and a HLA-DR2-restricted T-cell response (FIG. 4, right-hand panel) were prepared.

[2] = system: DCs from HLA-DR1 (DRB1*0101)-transgenic mice; assay: Loading of dendritic cells with HA306-318 and DC-mediated T-cell response; format: cell-based
Description: Dendritic cells ([…]) are one of the most important sub-groups of “professional” antigen-presenting cells. Therefore, in the present example, DCs from HLA-DR1 (DRB1*0101)-transgenic mice were used, the DCs being loaded for 4 hours with biotinylated HA306-318 peptide. Then, in order to determine the peptide load, the cells were stained with streptavidin-APC (SA-APC) and also with anti-HLA-DR and analysed by continuous-flow cytometry (FIG. 14A).

[3] = target: HLA-DR2 (DRB1*1501; β86V) wild-type molecule (Homo sapiens, UniProt P01903+P01911); assay: Catalysis of peptide binding to HLA-DR2 wild-type molecule on fibroblast cells
Description: The test was carried out as described under Comparison Test 3.3.

HLA-DR4 (DRB1*0401) = HLA-DR4 (DRB1*0401) (Homo sapiens, UniProt P01903+P01911, A100K/A169T/F76Y/I96L/K127E/L162R/M171V/N62H/P40V/Q125Y/R42H/S133A/S149N/S66Y/V115G/V209L/W38E); conditions: HA306-318, 8475/94 T-cells
Description: as §1

[4] = system: HLA-DR molecules with a deep or flat P1 pocket (β86G and β86V); assay: T-cell assays on HLA-DR molecules with a deep or flat P1 pocket; format: cell-based, human; conditions: dose-activity curves
Description: (§2) In the following, the catalysis of HLA loading by pCP was determined for the purposes of comparison. […] These dose-activity curves show the activity of the two catalysts on HLA-DR molecules with a deep or flat P1 pocket {β86G and β86V} as well as on the mouse MHC class II molecules H2-Ek and H2-Ak.

H2-E^k = assay: T-cell assay on mouse MHC class II molecule H2-E; format: cell-based; conditions: T-cell assays
Description: as §2

H2-A^k = H2-A^k (Mus musculus, UniProt P01910+P06343); assay: T-cell assay on mouse MHC class II molecule H2-A; format: cell-based; conditions: T-cell assays
Description: as §2

H2-A^k, sequence (P01910 24-256): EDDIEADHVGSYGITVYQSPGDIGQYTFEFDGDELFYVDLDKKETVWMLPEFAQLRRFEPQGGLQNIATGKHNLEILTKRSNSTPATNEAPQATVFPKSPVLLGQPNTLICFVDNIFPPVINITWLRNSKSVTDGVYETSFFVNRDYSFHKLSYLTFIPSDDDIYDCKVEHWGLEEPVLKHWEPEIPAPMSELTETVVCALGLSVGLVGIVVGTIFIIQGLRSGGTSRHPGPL
H2-A^k, sequence (P06343 28-263): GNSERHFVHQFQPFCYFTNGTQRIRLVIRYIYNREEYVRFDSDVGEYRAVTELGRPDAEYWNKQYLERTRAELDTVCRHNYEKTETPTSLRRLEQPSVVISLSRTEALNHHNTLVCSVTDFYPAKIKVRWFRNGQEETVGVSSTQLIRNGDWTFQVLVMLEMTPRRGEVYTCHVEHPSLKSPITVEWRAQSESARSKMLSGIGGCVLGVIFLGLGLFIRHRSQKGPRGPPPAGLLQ

Row | catalytic activity in the ELISA [1] | immune response of HLA-DR1-restricted T-cells (HLA-DR1 (DRB1*0101)) | catalysis of the binding of MBP86-100 to HLA-DR2 wild-type molecule [3] | Structure (SMILES) | HLA-DR2-restricted T-cell response (HLADR2 (DRB1*1501)) | HA306-318 peptide concentration that triggers the T-cell response reached at 100 ng/ml without catalyst ([2]; 250 μM catalyst) | peptide signal on the surface of the DCs ([2]; 250 μM, 4 hours, biotinylated HA306-318) | strength of T-cell responses vs DCs loaded without catalyst ([2]; DCs loaded with antigen in the presence of catalyst) | HLA-DR4-restricted T-cell response (HLA-DR4 (DRB1*0401)) | activity on HLA-DR molecules with deep or flat P1 pocket [4] | effect on H2-E molecules (H2-E^k) | effect on H2-A molecules (H2-A^k)
1 | substantially greater catalytic activity | markedly enhanced | unable to effect catalysis | OCCC12CC3CC(CC(C3)C1)C2 [I 1, 2-(1-adamantyl)-ethanol] | unable to effect catalysis | less than 10 ng/ml | markedly stronger peptide signal | up to 15 times | – | – | – | –
2 | – | – | – | Oc1ccc(Cl)cc1 [pCP, p-chlorophenol] | enhancing effect on all the HLA-DR molecules investigated | – | – | – | enhancing effect on all the HLA-DR molecules investigated | no dependence on the […]86 dimorphism; also recorded: independent of the depth of the P1 pocket | no effect | no effect
